# Source: patent US20230219898A1, “COMPOUNDS AND METHODS FOR BLOCKING APOPTOSIS AND INDUCING AUTOPHAGY” (President and Fellows of Harvard College, priority 2020, published 2023)
# Like-named read-outs stand apart in the source and are kept apart here.
# Columns and labels:
# Human Jurkat cells = test: Velcade-induced apoptosis of Jurkat cells, CellTiter-Glo viability; type: cell-based
# Description: Human Jurkat cells were seeded in 96-well plates (20000 cells per well). Different concentrations of the compounds were added one hour prior to Velcade treatment, followed by the addition of 50 nM Velcade. After incubation for 24 hours, cell viability was measured by CellTiter-Glo Luminescent Cell Viability Assay.
# The rates of cell death were measured in triplicate or quadruplicate in a 96-well or 384-well plate by using SYTOX Green Nucleic Acid Stain (Invitrogen) or ToxiLight Non-destructive Cytotoxicity BioAssay Kit (Lonza). The intensity of luminescence was determined in an EnSpire Multimode Plate Reader (PerkinElmer). Cytotoxicity is expressed as percentages of cell death per well after deducting the background signal in non-induced cells and compared to that of the maximal cell death with 100% Lysis Reagent. The rates of cell viability were determined by using CellTiter-Glo Luminescent Cell Viability Assay (Promega) following the manufacturer's protocol and the results are expressed as percentages of luminescence intensity per well after deducting the background signal in blank well and compared to that of the viability in the non-treated wells. Concentration of drugs used for inducing or inhibiting cell death, mTNFα: 1 ng/ml; 5Z-7-Oxozeaenol: 0.5 μM; Velcade: 50 nM; Apt-1/ICCB-19/ICCB-19i/Nec-1s: 10 μM.
# Beclin 1 = test: K63-linkage specific ubiquitination of Beclin 1 in MEFs; type: cell-based, mouse; details: 6 h
# Text: Anti-K63-linkage specific polyubiquitin antibody was used to conduct secondary immunoprecipitation. Samples were then immunoblotted with anti-Beclin 1 antibody to measure the K63-linkage specific ubiquitination of Beclin 1.
# mice injected with mTNFα = test: In vivo delivery of TNFα, systemic inflammation model; details: Apt-1 20 mg/kg i.p. 30 min before mTNFα 9.5 μg i.v.
# Description: Control mice (n=9) received an equal amount of vehicle before mTNFα challenge. Mean s.e.m. Two-way ANOVA. ***P=0.0007.
# WT mice (n=10, male, 8 weeks of age) were injected intravenously via the tail vein with mTNFα (9.5 μg/mouse) after an intraperitoneal injection of Apt-1 (20 mg/kg) 30 min before. Control mice (n=9) received an equal amount of vehicle 30 min before mTNFα challenge. Kaplan Meier survival curve was determined. 25. Vps34 lipid kinase assay HEK293T cells were transfected with Flag-Beclin 1 for 18 h and then treated with ICCB-19, ICCB-19i, Apt-1 (10 μM) for another 6 h. Flag-Beclin 1 was immunoprecipitated by anti-Flag to isolate Beclin 1/Vps34 complex. Immunoprecipitated beads were added with sonicated phosphatidylinositol (1 μl of 5 mg) and ATP (1 μl of 10 mM) in 30 μl reaction buffer (40 mM Tris (pH 7.5), 20 mM MgCl2, 1 mg/ml BSA) for 30 min at room temperature. Wortmannin (10 μM) was used as a control and added into the reaction to inhibit Vps34. The conversion of ATP into ADP levels was measured by an ADP-Glo Kinase Assay Kit (Promega) according to the manufacturer's instructions.
# TRADD-N and TRAF2-C = target: T1, TRADD-N and TRAF2-C (Homo sapiens, UniProt Q15628); test: Cell-free FRET assay TRADD-N / TRAF2-C; type: biochemical; details: incubated 1 h
# T1 construct: expression constructs encoding Flag-TRADD-N(1-179) and HA-TRADD-C(180-312); expressed in transfected cells; host or cells: HEK293T
# Description: When FRET occurs, the acceptor mVenus-TRADDN-Flag (mV-TRADDN) emission will increase and the donor emission will decrease. Apt-1 was added to the system with indicated concentration and incubated for 1 h, then subjected to FRET assay.
# mVenus- and Flag-tagged TRADD-N(mVenus-TRADDN-Flag) and mCerulean- and Flag-tagged TRAF2C (Flag-TRAF2C-mCerulean) was expressed in HEK293T cells for 48 h. Then cells were lysed in NP-40 buffer followed by immunoprecipitation using anti-Flag affinity gel. The proteins were eluted by 5 mg/ml 3×Flag peptide and exchanged into assay buffer (120 mM NaCl, 20 mM NaH2PO4/Na2HPO4, pH 7.4) by dialysis for FRET assay. The proteins were added into Coming black 96-well microtiter plates in triplicates at a final concentration of 1 μM. Apt-1 was incubated with the proteins for 1 h before measurement. Measurements were performed on a fluorescent plate reader (Victor3, 1420 Multilabel counter, Perkin Elmer). The following filter set was used: mCerulean filter set (excitation: 430/15 nm, emission: 460/20 nm); mVenus filter set (excitation: 485/15, emission 535/15); FRET filter set (430/15 nm, emission 450-600 nm).
# [1] = test system: PS19 mice injected with tau pffs; test: Tau pff transmission model in PS19 mice, Apt-1 delivered intracerebroventricularly
# panel of 97 kinases = test: KINOMEscan profiling; type: binding; details: 10 μM
# Description: FIG. 5d depicts the KINOMEscan profiling of Apt-1 (10 μM) against a panel of 97 kinases. Binding interactions reported as % Ctrl, where lower numbers indicate stronger hits. Negative control=DMSO (100% Ctrl); positive control=control compound (0% Ctrl); 0<% Ctrl <0.1 Very Strong; 0.1≤% Ctrl <1 Strong; 1≤% Ctrl <10 Medium; […] Weak; % Ctrl ≥35 No effects. No significant binding of Apt-1 to this panel of 97 kinases was detected. CellTiter-Glo was used to determine cell survival in (a), (b), and (c).
# KINOMEscan profiling was used to assess the interaction of Apt-1 with a panel of 97 kinases as a custom service (DiscoverX/Eurofins, San Diego, Calif. USA). Briefly, DNA-tagged recombinant kinases were produced in E. coli. The assay plates with kinases were incubated at room temperature with shaking for 1 h and the affinity beads were washed with wash buffer (1×PBS, 0.05% Tween 20). The beads were then re-suspended in elution buffer. The kinase concentration in the eluates was measured by qPCR. Apt-1 were screened at […], and the results for primary screen binding interactions are reported as % Ctrl, where lower numbers indicate stronger hits in the matrix.
# [2] = FIG. 5b, Velcade 50 nM, 24 h, read-out: IC50 of inhibition of Velcade-induced apoptosis
# [3] = Table 3, 50 nM Velcade, 24 hours, read-out: Jurkat Velcade IC50/μM
# T1 sequence (Q15628 1-179): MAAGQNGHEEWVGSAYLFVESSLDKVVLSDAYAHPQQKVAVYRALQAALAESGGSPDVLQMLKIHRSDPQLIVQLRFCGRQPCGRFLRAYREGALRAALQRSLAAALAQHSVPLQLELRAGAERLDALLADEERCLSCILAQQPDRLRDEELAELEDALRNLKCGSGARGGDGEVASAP
structure (smiles),measurement,setting,value
O=C(CSC1=NCCN1)NC1CCCCCC1 [ICCB-19],IC50,Human Jurkat cells; [2],~1 µM
same,IC50,"Human Jurkat cells; Table 1, 50 nM Velcade, 24 hours, read-out: Apoptosis of Jurkat cells induced by Velcade (IC50 μM)",1.1 µM
same,IC50,Human Jurkat cells; [3],1.12 µM
same,Beclin 1 K63 ubiquitination,Beclin 1,dramatically enhanced
CN1CCN=C1SC(C(=O)NC1CCCCCC1)c1ccccc1 (stereo not drawn) [Compound 30],survival following intravenously-delivered TNFα,mice injected with mTNFα,increased survival
same,IC50,Human Jurkat cells; [2],~1 µM
same,IC50,Human Jurkat cells; [3],0.799 µM
same,Beclin 1 K63 ubiquitination,Beclin 1,dramatically enhanced
same,binding of TRADD-N to TRAF2-C (FRET),TRADD-N and TRAF2-C,dose-dependently reduced
same,survival or behavior of the mice,"[1]; 20 mM Apt-1 ICV pump, one month or one week",no apparent difference in survival or behavior
same,"accumulation of tangle-like tau aggregates, delayed dosing","[1]; Apt-1 for 1 week, 3 weeks after pffs",effectively reduce the accumulation of tangle-like tau aggregates
same,autophagy and levels of tau in hippocampus,[1]; FIG. 3a,induce autophagy and reduce the levels of tau
same,"neurofibrillary tangle-like pathogenesis induced by pffs (AT8, MC1)","[1]; FIG. 3b, 3c",reduced neurofibrillary tangle-like pathogenesis
same,activated pRIPK1+ and apoptotic TUNEL+ cells in CA1 hippocampus,"[1]; FIG. 3d, 3e",inhibited
same,off-target effects on 97 kinase targets,panel of 97 kinases,no significant off-target effects
